Data set [1] has as its system human HDAC (Hela cells nuclear extract). Briefly: HDAC activity screening, Hela nuclear extract, Boc-Lys(Ac)-AMC substrate. As to conditions: Hela nuclear extract; for HDAC % Inhibition (1 μM): 1 μM compound; for HDAC % Inhibition (10 μM): 10 μM compound; for IC50: read-out: IC50 (50% HDAC inhibitory concentration), Table 2. The data set is classed as biochemical. How it is done:
To study the human HDAC inhibition the in-house 96 well plate assay have been established using fluorescent substrate (Boc-Lys (Ac)-AMC Substrate). Hela cells nuclear extract have been used as enzyme source.
Assay was performed in 96-well black microplate and total volume of the assay was 100 μL. Hela nuclear extract was diluted HDAC assay buffer (final concentration of 3.0 μg/mL). Enzyme mixture was made of 10 μL of diluted enzyme and 30 μL of HDAC buffer. 40 μl of enzyme mixture followed by 10 μL of test compound (final concentration from 0.01 to 10 μM) or vehicle (control) was added to each well. The plate was pre-incubated at 37° C. for 10 minutes. The HDAC reaction was started by adding 50 μl of HDAC substrate Boc-Lys (Ac)-AMC (Anaspec, Inc Fremont, Calif., USA). The plate was incubated at 37° C. for 45 minutes. The reaction was stopped by adding 50 μL of Trypsin stop solution and plate further incubated at 37° C. for 15 minutes. Measuring the fluorescence at excitation wavelength of 360 nm and emission wavelength of 460 nm monitored the release of AMC. Buffer alone and substrate alone served as blank.

In a further data set the test system is A549. Briefly: Cell proliferation assay (MTT). The data set is classed as cell-based. Conditions: Homo sapiens, A549; Table 1; MTT, 48 hours; read-out: Cell growth inhibition (GI50 in μM) A549. How it is done: (§1) Cells were seeded in a 96-well cell culture plates at a concentration of 10,000 cells per well and incubated at 37° C. in CO2 incubator.
(§2) Twenty-four hours later cells were treated with different concentrations (100, 10, 1, 0.1, and 0.01 μM) of compound dissolved in DMSO and incubated for 48 hours. For To measurement, 24 hours after seeding the cells, 20 μL of 3-(4.5-dimethyl-2- thiazolyl)-2,5-diphenyl-2H-tetrazolium (MTT) solution per well was added to the T0 plate and incubated for 3 hours at 37° C. in a CO2 incubator.
(§3) The plate containing cells and test compounds was treated similarly after 48 hours of incubation. After 3 hours of MTT addition, well contents were aspirated carefully followed by addition of 100 μL DMSO per well. Plates were agitated to ensure dissolution of the formazan crystals in DMSO and absorbance was read at 570 nm (A570). […] From the percentage growths a dose response curve was generated and GI50 values were interpolated from the growth curves.

For a further data set, the system named is PA-1. Nature of the data set: Cell proliferation assay (MTT). In kind it is cell-based. Conditions: Homo sapiens, Table 1, MTT, 48 hours, read-out: Cell growth inhibition (GI50 in μM) PA-1. How it is done: as §1, §2, §3
Another data set relates to PC-3. Nature of the data set: Cell proliferation assay (MTT). In kind it is cell-based. Conditions: Homo sapiens, PC-3; Table 1; MTT, 48 hours; read-out: Cell growth inhibition (GI50 in μM) PC-3. Here is the method:
as §1, §2, §3

Data set [2] in a line: Oral bioavailability and pharmacokinetics studies. The data set is classed as in vivo, male Balb/c mice. Here is the method:
The studies were performed to determine the oral bioavailability and pharmacokinetics of test compounds in male Balb/c mice. Study was performed after obtaining the Institutional Animal Ethics Committee (IAEC) permission. Mice aged 5 to 6 weeks weighing around 25 to 30 g were used for this study. The animals were fasted overnight with free access to water. Animals were administered test compounds by oral route at a 50 mg/kg body weight (formulation: 0.5% methylcellulose in water and 0.1% tween 80. Dose volume 10 ml/kg b.w.) or intravenous route at a dose 10 mg/kg b.w. […] (formulation: 0.9% saline. Dose volume 10 ml/kg b.w.) Blood samples were collected at various time points during the next 24 hours post dose. The blood samples were centrifuged at 3000 g for 5 minutes at 4° C. and the corresponding plasma samples were collected in clean pre-labeled tubes. Then, each sample was subjected to a suitable extraction method and analysed by LC-MS/MS (API 3200 LC-MS/MS system). Data was analyzed using WinNonlin version 5.2 (Pharsight).

The subject of another data set is HT-29. Nature of the data set: Cell proliferation assay (MTT). In kind it is cell-based. Conditions: Homo sapiens, HT-29; Table 1; MTT, 48 hours; read-out: Cell growth inhibition (GI50 in μM) HT-29. How it is done:
as §1, §2, §3

The subject of the next data set is NCI-H460. Briefly: Cell proliferation assay (MTT). The data set is classed as cell-based. As to conditions: Homo sapiens, Table 1, MTT, 48 hours, read-out: Cell growth inhibition (GI50 in μM) NCI H460. How it is done: as §1, §2, §3
[3] abbreviates: plasma, oral 50 mg/kg, male Balb/c mouse.

Consider 7 compounds from US20120101099A1, “HISTONE DEACETYLASE INHIBITORS” (ANTHEM BIOSCIENCES PRIVATE LIMITED, priority 2009, published 2012).

Counter-ions that a name gives are not always drawn.

What is called GI50 is the concentration that inhibits growth by half. What is called bioavailability is dose-corrected exposure relative to a reference, in per cent. A lower bioavailability goes with poor availability. In general, AUC(0-t) refers to the area under the concentration-time curve up to a stated or last time point. As usually defined, the Cmax is the peak of the concentration-time curve. One may read the Tmax as the time from dosing to the highest level. The half-life is the time in which the quantity being followed falls by half. A low value points to fast loss.

With `O=C(/C=C/c1ccc(Cn2cc(-c3ccc(CN4CCOCC4)cc3)nn2)cc1)NO` [Example 20], in data set [1], the “HDAC % Inhibition (1 μM)” value was 96%, the “HDAC % Inhibition (10 μM)” value was 100% and the IC50 came out at 19 nM. For the same compound, the GI50 in the data set with A549 is 2.9 ± 1.8 µM. For the same compound, in the data set on PA-1, the GI50 came out at 0.16 ± 0.02 µM. Also, in the data set on PC-3, the GI50 stood at 12.7 ± 5.6 µM.

As for `CCN(CC)CCc1ccc(-c2cn(Cc3ccc(C(=O)NO)cc3)nn2)cc1` [Example 11, 4-{4-[4-(2-Diethylamino-ethyl)-phenyl]-[1,2,3]triazol-1-ylmethyl}-N-hydroxy-benzamide], the IC50 in data set [1] stood at 18.6 nM. Also, in data set [2] (compared with SAHA, oral), the “times higher AUC” value is 9 times and the “times longer terminal half life” value is 2 times.

For `O=C(/C=C/c1cccc(Cn2cc(-c3ccc(CN4CCCC4)cc3)nn2)c1)NO` [Example 26, N-Hydroxy-3-{3-[4-(4-pyrrolidin-1-ylmethyl-phenyl)-[1,2,3]triazol-1-ylmethyl]-phenyl}-acrylamide hydrochloride], in data set [1], the “HDAC % Inhibition (1 μM)” value is recorded as 99%, the “HDAC % Inhibition (10 μM)” value worked out at 99% and the IC50 was determined as 1 nM. Moreover, the GI50 in the data set on A549 worked out at 0.9 ± 0.3 µM. In addition, in the data set on PA-1, the 50% growth inhibitory concentration (GI50) worked out at 0.03 µM. In addition, the GI50 with PC-3 came out at 9.4 ± 6.2 µM.

Consider `CN(C)Cc1ccc(-c2cn(Cc3ccc(C(=O)NO)cc3)nn2)cc1` [Example 10, 4-[4-(4-Dimethylaminomethyl-phenyl)-[1,2,3]triazol-1-ylmethyl]-N-hydroxy-benzamide], for which, in data set [1], the “HDAC % Inhibition (1 μM)” value amounted to 96%, the “HDAC % Inhibition (10 μM)” value came to 100% and the IC50 was 25 nM. The GI50 in the data set with A549 was determined as 3.2 ± 1.4 µM. In the data set on PA-1, the GI50 stood at 0.1 ± 0.02 µM. Moreover, in the data set on PC-3, the GI50 turned out to be 18.5 ± 10.2 µM.

`CN(C)Cc1ccc(-c2cn(Cc3cccc(/C=C/C(=O)NO)c3)nn2)cc1` [Example 27, 3-{3-[4-(4-Dimethylaminomethyl-phenyl)-[1,2,3]triazol-1-ylmethyl]-phenyl}-N-hydroxy-acrylamide hydrochloride]: in data set [1], the “HDAC % Inhibition (1 μM)” value is 99%, the “HDAC % Inhibition (10 μM)” value is 99% and the IC50 came out at 1 nM. In addition, the GI50 in the data set with A549 was 0.4 ± 0.2 µM. The GI50 in the data set on PA-1 was determined as 0.02 µM. In addition, in the data set with PC-3, the GI50 worked out at 4.5 ± 5.7 µM.

Turning to `CCN(CC)Cc1ccc(-c2cn(Cc3ccc(C(=O)NO)cc3)nn2)c(F)c1` [Example 13, 4-[4-(4-Diethylaminomethyl-2-fluoro-phenyl)-[1,2,3]triazol-1-ylmethyl]-N-hydroxy-benzamide], in data set [1], the IC50 is 19.1 nM. Also, the bioavailability in data set [2] (plasma, oral 50 mg/kg vs intravenous, male Balb/c mouse) was determined as 68 ± 6%. Besides, in data set [2] (setting [3]), the AUC(0-t) is 3340 ng·h/mL, the concentration peaked (Cmax) at 3360 ng/mL, the Tmax worked out at 4.8 min and the half-life was 120 min.

With `O=C(NO)c1ccc(Cn2cc(-c3ccccc3)nn2)cc1` [Example 2, N-Hydroxy-4-(4-phenyl-[1,2,3]triazol-1-ylmethyl)-benzamide], the “HDAC % Inhibition (1 μM)” value in data set [1] was 98%. Further, in data set [1], the “HDAC % Inhibition (10 μM)” value came to 100%. In addition, the GI50 was found to be 1.9 ± 1.8 µM in the data set with HT-29, 2.6 ± 2 µM with NCI-H460, 0.11 µM in the data set with PA-1 and 1.7 ± 1.1 µM in the data set on PC-3.
